Reference: PubChem BioAssay AID248 (DTP/NCI, 2004)
Several values for one entry are separate records, joined by “and”; a condition that tells them apart may be missing. Equal values may be shown once. Inconclusive results and toxic doses are left out. Rule as the data show it: active = T/C of 150% or more; inactive = T/C below 125%.

Tested on: L1210 leukemia ip in BDF1 mice, survival T/C
Assay: NCI In Vivo Anticancer Drug Screen. Data for tumor model L1210 Leukemia (intraperitoneal) in B6D2F1 (BDF1) mice
Conditions: higher = longer survival
In short: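 Survival endpoint. Drug-treated group vs vehicle group, expressed as T divided by C. Tumor passaged by transplantation.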

[1] = endpoint: mean survival time, dose: 100.0 mg/kg/injection, schedule: Q04DX002 (ip), vehicle: Klucel (hydroxypropylcellulose) (HPC)
[2] = endpoint: mean survival time, dose: 200.0 mg/kg/injection, schedule: Q04DX002 (ip), vehicle: Klucel (hydroxypropylcellulose) (HPC)
[3] = endpoint: mean survival time, dose: 50.0 mg/kg/injection, schedule: Q01DX009 (ip), vehicle: saline with Tween-80
[4] = endpoint: mean survival time, dose: 100.0 mg/kg/injection, schedule: Q01DX009 (ip), vehicle: saline with Tween-80
[5] = endpoint: mean survival time, dose: 200.0 mg/kg/injection, schedule: Q01DX009 (ip), vehicle: saline with Tween-80
[6] = endpoint: mean survival time, dose: 100.0 mg/kg/injection, schedule: Q01DX001 (ip), vehicle: Klucel (hydroxypropylcellulose) (HPC)
[7] = endpoint: mean survival time, dose: 200.0 mg/kg/injection, schedule: Q01DX001 (ip), vehicle: Klucel (hydroxypropylcellulose) (HPC)
[8] = endpoint: mean survival time, dose: 400.0 mg/kg/injection, schedule: Q01DX001 (ip), vehicle: Klucel (hydroxypropylcellulose) (HPC)
[9] = endpoint: mean survival time, dose: 100.0 mg/kg/injection, schedule: Q04DX003 (ip), vehicle: saline with Tween-80

Measured: T/C

Nc1ncnc2[nH]ncc12
inactive: endpoint: mean survival time, dose: 0.94 mg/kg/injection, schedule: Q01DX Z (ip), vehicle: carboxymethylcellulose (CMC) 92 % of control | endpoint: mean survival time, dose: 1.7 mg/kg/injection, schedule: Q01DX015 (ip), vehicle: carboxymethylcellulose (CMC) 98 % of control | endpoint: mean survival time, dose: 1.88 mg/kg/injection, schedule: Q01DX Z (ip), vehicle: carboxymethylcellulose (CMC) 97 % of control | endpoint: mean survival time, dose: 2.6 mg/kg/injection, schedule: Q01DX015 (ip), vehicle: carboxymethylcellulose (CMC) 96 % of control and 99 % of control | endpoint: mean survival time, dose: 3.75 mg/kg/injection, schedule: Q01DX Z (ip), vehicle: carboxymethylcellulose (CMC) 114 % of control | endpoint: mean survival time, dose: 4.0 mg/kg/injection, schedule: Q01DX015 (ip), vehicle: carboxymethylcellulose (CMC) 107 % of control and 108 % of control | endpoint: mean survival time, dose: 6.0 mg/kg/injection, schedule: Q01DX015 (ip), vehicle: carboxymethylcellulose (CMC) 111 % of control and 114 % of control | endpoint: mean survival time, dose: 7.5 mg/kg/injection, schedule: Q01DX Z (ip), vehicle: carboxymethylcellulose (CMC) 114 % of control | endpoint: mean survival time, dose: 8.0 mg/kg/injection, schedule: Q02DX010 (ip), vehicle: carboxymethylcellulose (CMC) 109 % of control | endpoint: mean survival time, dose: 9.0 mg/kg/injection, schedule: Q01DX015 (ip), vehicle: carboxymethylcellulose (CMC) 109 % of control and 120 % of control | endpoint: mean survival time, dose: 13.0 mg/kg/injection, schedule: Q02DX010 (ip), vehicle: other 115 % of control | endpoint: mean survival time, dose: 13.5 mg/kg/injection, schedule: Q01DX015 (ip), vehicle: carboxymethylcellulose (CMC) 106 % of control | endpoint: mean survival time, dose: 20.0 mg/kg/injection, schedule: Q02DX010 (ip), vehicle: other 120 % of control | endpoint: mean survival time, dose: 25.0 mg/kg/injection, schedule: Q01DX009 (ip), vehicle: saline 106 % of control | endpoint: mean survival time, dose: 30.0 mg/kg/injection, schedule: Q02DX010 (ip), vehicle: other 115 % of control | endpoint: mean survival time, dose: 45.0 mg/kg/injection, schedule: Q02DX010 (ip), vehicle: other 121 % of control | endpoint: mean survival time, dose: 67.0 mg/kg/injection, schedule: Q02DX010 (ip), vehicle: other 91 % of control | endpoint: mean survival time, dose: 80.0 mg/kg/injection, schedule: Q01DX001 (ip), vehicle: carboxymethylcellulose (CMC) 111 % of control | endpoint: mean survival time, dose: 120.0 mg/kg/injection, schedule: Q01DX001 (ip), vehicle: carboxymethylcellulose (CMC) 103 % of control | endpoint: mean survival time, dose: 182.0 mg/kg/injection, schedule: Q01DX001 (ip), vehicle: carboxymethylcellulose (CMC) 117 % of control | endpoint: median survival time, dose: 3.0 mg/kg/injection, schedule: Q01DX009 (ip), vehicle: saline 100 % of control and 105 % of control | endpoint: median survival time, dose: 6.0 mg/kg/injection, schedule: Q01DX009 (ip), vehicle: saline 100 % of control and 111 % of control | endpoint: median survival time, dose: 12.0 mg/kg/injection, schedule: Q01DX009 (ip), vehicle: saline 112 % of control | endpoint: median survival time, dose: 24.0 mg/kg/injection, schedule: Q01DX009 (ip), vehicle: saline 100 % of control and 112 % of control

CCCCCCCCN=[N+](C)[O-]
inactive: [1] 97 % of control | [2] 93 % of control

C=C1C(=O)OC2C3=C(C)C(=O)CC3C3(C)CC3C12 (stereo unspecified)
inactive: endpoint: mean survival time, dose: 50.0 mg/kg/injection, schedule: Q01DX001 (ip), vehicle: water 103 % of control

Cc1cc(N(C)C)cc(C)c1N=Nc1cc[n+]([O-])cc1
inactive: endpoint: mean survival time, dose: 12.5 mg/kg/injection, schedule: Q04DX003 (ip), vehicle: saline with Tween-80 98 % of control | endpoint: mean survival time, dose: 25.0 mg/kg/injection, schedule: Q04DX003 (ip), vehicle: saline with Tween-80 98 % of control | [3] 95 % of control | endpoint: mean survival time, dose: 50.0 mg/kg/injection, schedule: Q04DX003 (ip), vehicle: saline with Tween-80 100 % of control | [4] 91 % of control | [5] 91 % of control

CC1(C)C2CCC1(C(=O)O)C(=O)C2 (stereo unspecified)
inactive: [4] 96 % of control | [5] 95 % of control

Nc1cc(Nc2ccc(Cl)[nH]c2=S)nc(N)n1
inactive: [6] 90 % of control | [7] 93 % of control | [8] 92 % of control

CCCCOc1ccc(S(=O)(=O)c2ccc(OCCCC)c([N+](=O)[O-])c2)cc1[N+](=O)[O-]
inactive: endpoint: mean survival time, dose: 75.0 mg/kg/injection, schedule: Q04DX002 (ip), vehicle: gum acacia 97 % of control | endpoint: mean survival time, dose: 150.0 mg/kg/injection, schedule: Q04DX002 (ip), vehicle: gum acacia 97 % of control | endpoint: mean survival time, dose: 300.0 mg/kg/injection, schedule: Q04DX002 (ip), vehicle: gum acacia 97 % of control

OC(CN1CCN(c2ccccc2)CC1)c1cc2ccccc2o1 (stereo unspecified)
inactive: [9] 104 % of control | endpoint: mean survival time, dose: 200.0 mg/kg/injection, schedule: Q04DX003 (ip), vehicle: saline with Tween-80 94 % of control | endpoint: mean survival time, dose: 400.0 mg/kg/injection, schedule: Q04DX003 (ip), vehicle: saline with Tween-80 94 % of control

Clc1ccc2[nH]ncc2c1
inactive: [1] 88 % of control | [2] 98 % of control | endpoint: mean survival time, dose: 400.0 mg/kg/injection, schedule: Q04DX002 (ip), vehicle: Klucel (hydroxypropylcellulose) (HPC) 98 % of control

COC(=O)c1n[nH]c(C)c1N=NN(C)C
inactive: endpoint: mean survival time, dose: 75.0 mg/kg/injection, schedule: Q01DX001 (ip), vehicle: saline 119 % of control | endpoint: mean survival time, dose: 150.0 mg/kg/injection, schedule: Q01DX001 (ip), vehicle: saline 123 % of control

NCCSCCc1ccccc1
inactive: endpoint: mean survival time, dose: 25.0 mg/kg/injection, schedule: Q04DX002 (ip), vehicle: saline with Tween-80 100 % of control | endpoint: mean survival time, dose: 50.0 mg/kg/injection, schedule: Q04DX002 (ip), vehicle: saline with Tween-80 103 % of control

OC(CI)C(O)CI (stereo unspecified)
inactive: endpoint: mean survival time, dose: 75.0 mg/kg/injection, schedule: Q01DX001 (ip), vehicle: other 104 % of control | endpoint: mean survival time, dose: 150.0 mg/kg/injection, schedule: Q01DX001 (ip), vehicle: other 106 % of control and 86 % of control | endpoint: mean survival time, dose: 300.0 mg/kg/injection, schedule: Q01DX001 (ip), vehicle: other 101 % of control

CN1CCCC1CCNc1nc(C(Cl)(Cl)Cl)nc2ccc(Cl)cc12 (stereo unspecified)
inactive: endpoint: mean survival time, dose: 25.0 mg/kg/injection, schedule: Q01DX009 (ip), vehicle: saline with Tween-80 106 % of control | [3] 96 % of control | [4] 106 % of control | [9] 88 % of control

O=C(O)c1cccc(-n2cnc3c(=O)[nH]cnc32)c1
inactive: endpoint: mean survival time, dose: 50.0 mg/kg/injection, schedule: Q01DX001 (ip), vehicle: saline 108 % of control | endpoint: mean survival time, dose: 100.0 mg/kg/injection, schedule: Q01DX001 (ip), vehicle: saline 93 % of control | endpoint: mean survival time, dose: 200.0 mg/kg/injection, schedule: Q01DX001 (ip), vehicle: saline 96 % of control | endpoint: mean survival time, dose: 400.0 mg/kg/injection, schedule: Q01DX001 (ip), vehicle: saline 104 % of control

C1CSCCS1
inactive: endpoint: mean survival time, dose: 100.0 mg/kg/injection, schedule: Q01DX009 (ip), vehicle: Klucel (hydroxypropylcellulose) (HPC) 101 % of control | endpoint: mean survival time, dose: 200.0 mg/kg/injection, schedule: Q01DX009 (ip), vehicle: Klucel (hydroxypropylcellulose) (HPC) 117 % of control | endpoint: mean survival time, dose: 400.0 mg/kg/injection, schedule: Q01DX009 (ip), vehicle: Klucel (hydroxypropylcellulose) (HPC) 100 % of control

COC(=O)c1ccccc1NC(=O)c1ccccc1[N+](=O)[O-]
inactive: endpoint: mean survival time, dose: 75.0 mg/kg/injection, schedule: Q04DX003 (ip), vehicle: Klucel (hydroxypropylcellulose) (HPC) 101 % of control | [6] 95 % of control | endpoint: mean survival time, dose: 150.0 mg/kg/injection, schedule: Q04DX003 (ip), vehicle: Klucel (hydroxypropylcellulose) (HPC) 98 % of control | [7] 100 % of control | endpoint: mean survival time, dose: 300.0 mg/kg/injection, schedule: Q04DX003 (ip), vehicle: Klucel (hydroxypropylcellulose) (HPC) 97 % of control | [8] 95 % of control
